# Data: US20050064510A1, “Ligand analysis” (priority 2003, published 2005)
# Molecular target: T1, Serine Kinase Zap-70 (Homo sapiens, UniProt P43403)
# T1 sequence (P43403 1-619): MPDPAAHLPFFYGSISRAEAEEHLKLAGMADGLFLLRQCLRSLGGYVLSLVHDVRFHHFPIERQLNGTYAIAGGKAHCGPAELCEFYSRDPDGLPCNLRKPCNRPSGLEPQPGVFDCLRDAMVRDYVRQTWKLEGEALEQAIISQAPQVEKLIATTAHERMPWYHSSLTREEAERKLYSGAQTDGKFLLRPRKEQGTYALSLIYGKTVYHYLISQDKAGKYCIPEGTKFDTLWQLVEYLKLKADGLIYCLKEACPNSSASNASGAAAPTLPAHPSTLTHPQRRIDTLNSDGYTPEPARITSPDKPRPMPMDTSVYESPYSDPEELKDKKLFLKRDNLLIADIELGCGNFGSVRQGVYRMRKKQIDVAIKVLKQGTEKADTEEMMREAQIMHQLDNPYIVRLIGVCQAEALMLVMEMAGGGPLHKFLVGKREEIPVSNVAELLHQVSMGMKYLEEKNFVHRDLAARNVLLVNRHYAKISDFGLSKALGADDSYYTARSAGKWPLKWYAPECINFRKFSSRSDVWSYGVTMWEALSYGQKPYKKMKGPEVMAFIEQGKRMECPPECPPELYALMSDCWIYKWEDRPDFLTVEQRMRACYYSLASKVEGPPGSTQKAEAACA
# Test: AS-MS dissociation kinetics after quench with excess Staurosporine
# Type: binding
# Details: read-out: Dissociation rate ks2 (converted)
# Description: A mixture of 9 μM Zap-70 and 1 μM NGD-6380 is prepared and incubated at room temperature for 30 minutes, a time sufficient for the mixture to reach equilibrium of bound and unbound components. […] The resulting dissociation of NGD-6380 is measured over time at intervals of 20, 30, 40, 60, 70, 80, and 100 minutes. The dissociation of NGD-6380 is measured in the following manner. […] Any amount of NGD-6380 which is not bound to the Zap-70 is separated from the Zap-70-NGD-6380 complex by the size exclusion step. […] Thus, the dissociation of […] is seen by the decreasing amount of the signal response of the NGD-6380 over time. The decrease in the signal response of the NGD-6380 is plotted as a function of time and the experimental data is fit to the exponential decay function of formula (XVIII) using the program Mathematical (Wolfram Research Inc., version 4.1). [ES]=[ES]0e^-ks2·t formula (XVIII) A mixture of 9 μM Zap-70 and 1 μM of a mixture of the ligands depicted in Table 3 is prepared and incubated at room temperature for 30 minutes, a time sufficient for the mixture to reach equilibrium of bound and unbound components. […] The decrease in the signal response of the ligands is plotted as a function of time and the experimental data is fit to the exponential decay function of formula (XVIII) using the program Mathematica®. [ESi]=[[…] formula (XVIII)
row,Structure (SMILES),koff [s⁻¹]
1,O=C(c1cc(NCc2ccc(C(F)(F)F)cc2)nc2ccc(-c3ccc4c(c3)OCO4)cc12)N1CCC[C@H]1CN1CCCC1 [NGD-6380],0.000138
2,CN(Cc1ccc(Cl)c(Cl)c1)c1cc(C(=O)N2CCC[C@H]2CN2CCCC2)c2cc(-c3ccc4c(c3)OCO4)ccc2n1 [NGD-6432],0.000117
3,O=C(c1cc(NCc2ccc(Cl)cc2)nc2ccc(-c3ccc4c(c3)OCO4)cc12)N1CCC[C@H]1CN1CCCC1 [NGD-6371],0.000275
4,CC(CNc1cc(C(=O)N2CCC[C@H]2CN2CCCC2)c2cc(-c3ccc4c(c3)OCO4)ccc2n1)c1ccccc1 (stereo partly drawn) [NGD-6390],0.00021
5,CCN(Cc1ccccc1)c1cc(C(=O)N2CCC[C@H]2CN2CCCC2)c2cc(-c3ccc4c(c3)OCO4)ccc2n1 [NGD-6423],6.5e-05
6,CN(Cc1ccccc1)c1cc(C(=O)N2CCC[C@H]2CN2CCCC2)c2cc(-c3ccc4c(c3)OCO4)ccc2n1 [NGD-6073],0.000117
7,O=C(c1cc(NCc2cccc(F)c2)nc2ccc(-c3ccc4c(c3)OCO4)cc12)N1CCC[C@H]1CN1CCCC1 [NGD-6367],0.000493
8,O=C(c1cc(NCc2ccc(C(F)(F)F)cc2)nc2ccc(-c3ccc4c(c3)OCCO4)cc12)N1CCC[C@H]1CN1CCCC1 [NGD-6862],0.000107

# Molecular target: T2, muscarinic acetylcholine receptor M2 (Cavia porcellus, UniProt H0VRN8)
# T2 sequence (H0VRN8 1-466): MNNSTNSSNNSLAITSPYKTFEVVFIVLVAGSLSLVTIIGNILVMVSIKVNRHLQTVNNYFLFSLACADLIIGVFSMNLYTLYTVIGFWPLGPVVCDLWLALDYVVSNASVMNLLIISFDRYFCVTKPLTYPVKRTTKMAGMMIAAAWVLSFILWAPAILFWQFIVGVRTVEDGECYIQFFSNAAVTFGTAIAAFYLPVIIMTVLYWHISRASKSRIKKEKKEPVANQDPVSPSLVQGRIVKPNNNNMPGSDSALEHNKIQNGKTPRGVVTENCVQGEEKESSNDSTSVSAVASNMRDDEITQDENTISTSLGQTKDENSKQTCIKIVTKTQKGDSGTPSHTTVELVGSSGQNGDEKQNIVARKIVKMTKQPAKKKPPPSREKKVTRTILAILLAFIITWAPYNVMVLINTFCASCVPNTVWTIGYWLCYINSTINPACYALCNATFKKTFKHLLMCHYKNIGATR
# Test: Tissue-based assay for M2 antagonism
# Details: not given
row,Structure (SMILES),activity in tissue
1,O=C(N[C@H]1CCCC[C@@H]1OCc1ccccc1)c1coc(-c2ccc(C(=O)N3CCC(N4CCCC4)CC3)cc2)n1 [NGD-3350],significant activity
